Results from PubChem BioAssay AID1259407 (Chemical Carcinogenesis Research Information System (CCRIS), 2018).
Calls of active or inactive are those of the source. How the calls were made is not given here.

Test system: CCRIS mutagenicity, Ames/micronucleus/aberration tests
Test: CCRIS mutagenicity studies
[1] = Test System: AMES SALMONELLA TYPHIMURIUM, Strain/Indicator: TA98, Metabolic Activation: NONE, Method: PREINCUBATION
[2] = Test System: AMES SALMONELLA TYPHIMURIUM, Strain/Indicator: TA98, Metabolic Activation: RAT, LIVER, S-9, PHENOBARBITAL AND 5,6-BENZOFLAVONE, Method: PREINCUBATION
[3] = Test System: AMES SALMONELLA TYPHIMURIUM, Strain/Indicator: TA100, Metabolic Activation: NONE, Method: PREINCUBATION
[4] = Test System: AMES SALMONELLA TYPHIMURIUM, Strain/Indicator: TA100, Metabolic Activation: RAT, LIVER, S-9, PHENOBARBITAL AND 5,6-BENZOFLAVONE, Method: PREINCUBATION
[5] = Test System: AMES SALMONELLA TYPHIMURIUM, Strain/Indicator: TA1535, Metabolic Activation: NONE, Method: PREINCUBATION
[6] = Test System: AMES SALMONELLA TYPHIMURIUM, Strain/Indicator: TA1537, Metabolic Activation: NONE, Method: PREINCUBATION
[7] = Test System: AMES SALMONELLA TYPHIMURIUM, Strain/Indicator: TA98, Metabolic Activation: NONE, Method: STANDARD PLATE
[8] = Test System: AMES SALMONELLA TYPHIMURIUM, Strain/Indicator: TA100, Metabolic Activation: NONE, Method: STANDARD PLATE

COC(=O)C1=C(C)NC(C)=C(C(=O)OC/C=C/c2ccccc2)C1c1cccc([N+](=O)[O-])c1 (configuration not stated)
mutagenic call [1]: inactive; negative
mutagenic call [2]: inactive; negative
mutagenic call [3]: inactive; negative
mutagenic call [4]: inactive; negative
mutagenic call [5]: inactive; negative
mutagenic call (Test System: AMES SALMONELLA TYPHIMURIUM, Strain/Indicator: TA1535, Metabolic Activation: RAT, LIVER, S-9, PHENOBARBITAL AND 5,6-BENZOFLAVONE, Method: PREINCUBATION): inactive; negative
mutagenic call [6]: inactive; negative
mutagenic call (Test System: AMES SALMONELLA TYPHIMURIUM, Strain/Indicator: TA1537, Metabolic Activation: RAT, LIVER, S-9, PHENOBARBITAL AND 5,6-BENZOFLAVONE, Method: PREINCUBATION): inactive; negative
mutagenic call (Test System: E. COLI, Strain/Indicator: WP2 UVRA, Metabolic Activation: NONE, Method: PREINCUBATION): inactive; negative
mutagenic call (Test System: E. COLI, Strain/Indicator: WP2 UVRA, Metabolic Activation: RAT, LIVER, S-9, PHENOBARBITAL AND 5,6-BENZOFLAVONE, Method: PREINCUBATION): inactive; negative

Nc1ccc(CO)c([N+](=O)[O-])c1
mutagenic call [1]: active; positive
mutagenic call [2]: active; positive
mutagenic call [3]: active; positive
mutagenic call [4]: active; positive

CN[C@H]1CCc2cc(OC)c(OC)c(OC)c2-c2ccc(OC)c(=O)cc21
mutagenic call [7]: inactive; negative
mutagenic call [8]: inactive; negative
mutagenic call (Test System: E. COLI, Strain/Indicator: WP2 (HCR), Metabolic Activation: NONE, Method: STANDARD PLATE): inactive; negative

O=C(OCC(COC(=O)c1ccccc1)(COC(=O)c1ccccc1)COC(=O)c1ccccc1)c1ccccc1
mutagenic call (Test System: AMES SALMONELLA TYPHIMURIUM, Strain/Indicator: TA97, Metabolic Activation: HAMSTER, LIVER, S-9, AROCLOR 1254 (10 OR 30%), Method: PREINCUBATION): inactive; negative
mutagenic call (Test System: AMES SALMONELLA TYPHIMURIUM, Strain/Indicator: TA97, Metabolic Activation: NONE, Method: PREINCUBATION): inactive; negative
mutagenic call (Test System: AMES SALMONELLA TYPHIMURIUM, Strain/Indicator: TA97, Metabolic Activation: RAT, LIVER, S-9, AROCLOR 1254 (10 OR 30%), Method: PREINCUBATION): inactive; negative
mutagenic call (Test System: AMES SALMONELLA TYPHIMURIUM, Strain/Indicator: TA98, Metabolic Activation: HAMSTER, LIVER, S-9, AROCLOR 1254 (10 OR 30%), Method: PREINCUBATION): inactive; negative
mutagenic call [1]: inactive; negative
mutagenic call (Test System: AMES SALMONELLA TYPHIMURIUM, Strain/Indicator: TA98, Metabolic Activation: RAT, LIVER, S-9, AROCLOR 1254 (10 OR 30%), Method: PREINCUBATION): inactive; negative
mutagenic call (Test System: AMES SALMONELLA TYPHIMURIUM, Strain/Indicator: TA100, Metabolic Activation: HAMSTER, LIVER, S-9, AROCLOR 1254 (10 OR 30%), Method: PREINCUBATION): inactive; negative
mutagenic call [3]: inactive; negative
mutagenic call (Test System: AMES SALMONELLA TYPHIMURIUM, Strain/Indicator: TA100, Metabolic Activation: RAT, LIVER, S-9, AROCLOR 1254 (10 OR 30%), Method: PREINCUBATION): inactive; negative
mutagenic call (Test System: AMES SALMONELLA TYPHIMURIUM, Strain/Indicator: TA1535, Metabolic Activation: HAMSTER, LIVER, S-9, AROCLOR 1254 (10 OR 30%), Method: PREINCUBATION): inactive; negative
mutagenic call [5]: inactive; negative
mutagenic call (Test System: AMES SALMONELLA TYPHIMURIUM, Strain/Indicator: TA1535, Metabolic Activation: RAT, LIVER, S-9, AROCLOR 1254 (10 OR 30%), Method: PREINCUBATION): inactive; negative
mutagenic call (Test System: AMES SALMONELLA TYPHIMURIUM, Strain/Indicator: TA1537, Metabolic Activation: HAMSTER, LIVER, S-9, AROCLOR 1254 (30%), Method: PREINCUBATION): inactive; negative
mutagenic call [6]: inactive; negative
mutagenic call (Test System: AMES SALMONELLA TYPHIMURIUM, Strain/Indicator: TA1537, Metabolic Activation: RAT, LIVER, S-9, AROCLOR 1254 (30%), Method: PREINCUBATION): inactive; negative

O=C(Cl)C(Cl)Cl
mutagenic call (Test System: AMES SALMONELLA TYPHIMURIUM, Strain/Indicator: TA98, Metabolic Activation: HAMSTER, LIVER, S-9, AROCLOR 1254 (30%), Method: PREINCUBATION): inactive; negative
mutagenic call [1]: inactive; negative
mutagenic call (Test System: AMES SALMONELLA TYPHIMURIUM, Strain/Indicator: TA98, Metabolic Activation: RAT, LIVER, S-9, AROCLOR 1254 (30%), Method: PREINCUBATION): inactive; negative
mutagenic call (Test System: AMES SALMONELLA TYPHIMURIUM, Strain/Indicator: TA100, Metabolic Activation: HAMSTER, LIVER, S-9, AROCLOR 1254 (30%), Method: PREINCUBATION): inactive; negative
mutagenic call (Test System: AMES SALMONELLA TYPHIMURIUM, Strain/Indicator: TA100, Metabolic Activation: NONE, Method: BAG VAPORIZATION): active; positive
mutagenic call [3]: active; positive
mutagenic call (Test System: AMES SALMONELLA TYPHIMURIUM, Strain/Indicator: TA100, Metabolic Activation: RAT, LIVER, S-9, AROCLOR 1254 (30%), Method: PREINCUBATION): inactive; negative
mutagenic call (Test System: AMES SALMONELLA TYPHIMURIUM, Strain/Indicator: TA100, Metabolic Activation: RAT, LIVER, S-9, AROCLOR 1254, Method: BAG VAPORIZATION): inactive; negative

COc1ccc(CON(OC(C)=O)C(=O)c2ccccc2)cc1
mutagenic call [8]: active; positive
mutagenic call (Test System: AMES SALMONELLA TYPHIMURIUM, Strain/Indicator: TA100, Metabolic Activation: RAT, S-9, AROCLOR, Method: STANDARD PLATE): active; positive

C#C[C@]1(O)C=C[C@H]2[C@@H]3CCC4=CC(=O)CC[C@@H]4[C@H]3CC[C@@]21CC
mutagenic call (End Point: IN VIVO MICRONUCLEUS, Test System: BONE MARROW POLYCHROMATIC ERYTHROCYTES, Species: MOUSE, Strain/Sex: NMRI/FEMALE, Route: INTRAGASTRIC): inactive; negative

CN1C(=O)[C@]23CC4=CC=C[C@H](O)[C@H]4N2C(=O)[C@@]1(CO)SS3
mutagenic call [7]: inactive; negative
mutagenic call (Test System: AMES SALMONELLA TYPHIMURIUM, Strain/Indicator: TA98, Metabolic Activation: RAT LIVER S-9 MIX, Method: STANDARD PLATE): inactive; negative
mutagenic call (Test System: AMES SALMONELLA TYPHIMURIUM, Strain/Indicator: TA98, Metabolic Activation: S-9, Method: STANDARD PLATE): inactive; negative
mutagenic call [8]: inactive; negative
mutagenic call (Test System: AMES SALMONELLA TYPHIMURIUM, Strain/Indicator: TA100, Metabolic Activation: RAT LIVER S-9 MIX, Method: STANDARD PLATE): inactive; negative
mutagenic call (Test System: AMES SALMONELLA TYPHIMURIUM, Strain/Indicator: TA100, Metabolic Activation: S-9, Method: STANDARD PLATE): inactive; negative
mutagenic call (Test System: AMES SALMONELLA TYPHIMURIUM, Strain/Indicator: TA102, Metabolic Activation: NONE, Method: STANDARD PLATE): inactive; negative
mutagenic call (Test System: AMES SALMONELLA TYPHIMURIUM, Strain/Indicator: TA102, Metabolic Activation: RAT LIVER S-9 MIX, Method: STANDARD PLATE): inactive; negative
mutagenic call (Test System: AMES SALMONELLA TYPHIMURIUM, Strain/Indicator: TA1537, Metabolic Activation: NONE, Method: STANDARD PLATE): inactive; negative
mutagenic call (Test System: AMES SALMONELLA TYPHIMURIUM, Strain/Indicator: TA1537, Metabolic Activation: S-9, Method: STANDARD PLATE): inactive; negative

CC(O)C(=O)[O][Al]([O]C(=O)C(C)O)[O]C(=O)C(C)O (configuration not stated)
mutagenic call (Test System: AMES SALMONELLA TYPHIMURIUM, Strain/Indicator: TA92, Metabolic Activation: NONE, Method: STANDARD PLATE): inactive; negative
mutagenic call [7]: inactive; negative
mutagenic call [8]: inactive; negative
mutagenic call (Test System: AMES SALMONELLA TYPHIMURIUM, Strain/Indicator: TA104, Metabolic Activation: NONE, Method: STANDARD PLATE): inactive; negative
